Experimental data: PMC5218480 (PLoS ONE, 2017)

System: MV-4-11 cells
Test: Gene expression microarray analysis (Affymetrix PrimeView) and GSEA
Type: cell-based, human
Parameters: RFU PODN (11730768_x_at) / Fold change /veh PODN (11730768_x_at) / RFU LINC00158 (11744669_a_at) / Fold change /veh LINC00158 (11744669_a_at) / RFU DUSP10 (11751237_a_at) / Fold change /veh DUSP10 (11751237_a_at) / RFU ID3 (11757404_x_at) / Fold change /veh ID3 (11757404_x_at) / RFU PLEKHG5 (11737974_s_at) / Fold change /veh PLEKHG5 (11737974_s_at) / RFU LRRC4B (11730491_at) / Fold change /veh LRRC4B (11730491_at) / RFU GIMAP4 (11747438_a_at) / Fold change /veh GIMAP4 (11747438_a_at) / RFU KRT8 (11758183_x_at) / Fold change /veh KRT8 (11758183_x_at) / RFU CNN1 (11734310_a_at) / Fold change /veh CNN1 (11734310_a_at) / RFU VPS37D (11726825_at) / Fold change /veh VPS37D (11726825_at) / RFU C10orf10 (11716522_x_at) / Fold change /veh C10orf10 (11716522_x_at) / RFU KIR2DL2 /// KIR2DL4 /// KIR2DL5A /// KIR2DL5B /// KIR2DS1 /// KIR2DS2 /// KIR2DS3 /// KIR2DS4 /// KIR3DL3 /// KIR3DL3 /// KIR3DS1 (11738374_at) / Fold change /veh KIR2DL2 /// KIR2DL4 /// KIR2DL5A /// KIR2DL5B /// KIR2DS1 /// KIR2DS2 /// KIR2DS3 /// KIR2DS4 /// KIR3DL3 /// KIR3DL3 /// KIR3DS1 (11738374_at) / RFU C1QL1 (11718748_at) / Fold change /veh C1QL1 (11718748_at) / RFU TMPRSS4 (11747572_a_at) / Fold change /veh TMPRSS4 (11747572_a_at) / RFU HAMP (11756126_x_at) / Fold change /veh HAMP (11756126_x_at) / RFU RNFT2 (11725882_a_at) / Fold change /veh RNFT2 (11725882_a_at) / RFU NR4A2 (11747474_a_at) / Fold change /veh NR4A2 (11747474_a_at) / RFU ABCC12 (11746883_a_at) / Fold change /veh ABCC12 (11746883_a_at) / RFU TMEM136 (11760407_x_at) / Fold change /veh TMEM136 (11760407_x_at) / RFU CLDN22 /// WWC2 (11732394_at) / Fold change /veh CLDN22 /// WWC2 (11732394_at) / RFU HLA-DPB1 (11760878_x_at) / Fold change /veh HLA-DPB1 (11760878_x_at) / RFU SPINT1 (11716480_a_at) / Fold change /veh SPINT1 (11716480_a_at) / RFU GAP43 (11754022_s_at) / Fold change /veh GAP43 (11754022_s_at) / RFU A4GNT (11735810_at) / Fold change /veh A4GNT (11735810_at) / RFU PRB3 (11715151_x_at) / Fold change /veh PRB3 (11715151_x_at) / RFU TUBB4B (11761932_at) / Fold change /veh TUBB4B (11761932_at) / RFU CAPN14 (11732068_a_at) / Fold change /veh CAPN14 (11732068_a_at) / RFU TMCC2 (11721928_a_at) / Fold change /veh TMCC2 (11721928_a_at) / RFU IRGQ (11745062_a_at) / Fold change /veh IRGQ (11745062_a_at) / RFU FAM174B (11720279_a_at) / Fold change /veh FAM174B (11720279_a_at) / RFU TMPRSS4 (11748680_a_at) / Fold change /veh TMPRSS4 (11748680_a_at) / RFU FAM212B (11763350_a_at) / Fold change /veh FAM212B (11763350_a_at) / RFU PLEKHG5 (11743358_a_at) / Fold change /veh PLEKHG5 (11743358_a_at) / RFU ZSCAN30 (11745921_a_at) / Fold change /veh ZSCAN30 (11745921_a_at) / RFU CMKLR1 (11741424_a_at) / Fold change /veh CMKLR1 (11741424_a_at) / RFU LOC101060620 /// MAPK8IP1 (11723275_at) / Fold change /veh LOC101060620 /// MAPK8IP1 (11723275_at) / RFU SPTSSB (11747773_x_at) / Fold change /veh SPTSSB (11747773_x_at) / RFU PRSS12 (11739890_at) / Fold change /veh PRSS12 (11739890_at) / RFU BIN1 (11741810_x_at) / Fold change /veh BIN1 (11741810_x_at) / RFU WNT11 (11732464_a_at) / Fold change /veh WNT11 (11732464_a_at) / RFU C10orf10 (11716521_a_at) / Fold change /veh C10orf10 (11716521_a_at) / RFU C5orf56 (11738089_at) / Fold change /veh C5orf56 (11738089_at) / RFU CYB561 (11721691_x_at) / Fold change /veh CYB561 (11721691_x_at) / RFU ANKRD19P (11752326_a_at) / Fold change /veh ANKRD19P (11752326_a_at) / RFU OR2T12 /// OR2T33 /// OR2T8 (11738714_s_at) / Fold change /veh OR2T12 /// OR2T33 /// OR2T8 (11738714_s_at) / RFU VCAN (11748164_a_at) / Fold change /veh VCAN (11748164_a_at) / RFU JSRP1 (11732532_at) / Fold change /veh JSRP1 (11732532_at) / RFU KRTAP10-11 (11738290_x_at) / Fold change /veh KRTAP10-11 (11738290_x_at) / RFU MYO3A (11730013_a_at) / Fold change /veh MYO3A (11730013_a_at) / RFU EBF3 (11725865_a_at) / Fold change /veh EBF3 (11725865_a_at) / RFU CAMK2N1 (11719241_x_at) / Fold change /veh CAMK2N1 (11719241_x_at) / RFU C5orf56 (11738088_a_at) / Fold change /veh C5orf56 (11738088_a_at) / RFU OLFML3 (11715873_a_at) / Fold change /veh OLFML3 (11715873_a_at) / RFU LOC100653217 /// NTM (11731650_a_at) / Fold change /veh LOC100653217 /// NTM (11731650_a_at) / RFU MAPK11 (11762145_a_at) / Fold change /veh MAPK11 (11762145_a_at) / RFU FIZ1 (11724087_x_at) / Fold change /veh FIZ1 (11724087_x_at) / RFU OASL (11726364_x_at) / Fold change /veh OASL (11726364_x_at) / RFU SOX15 (11748057_x_at) / Fold change /veh SOX15 (11748057_x_at) / RFU CD79A (11719716_a_at) / Fold change /veh CD79A (11719716_a_at) / RFU HIST1H1D (11736915_at) / Fold change /veh HIST1H1D (11736915_at) / RFU CASKIN2 (11723855_a_at) / Fold change /veh CASKIN2 (11723855_a_at) / RFU LOC730098 (11760151_x_at) / Fold change /veh LOC730098 (11760151_x_at) / RFU OR4N2 (11742367_at) / Fold change /veh OR4N2 (11742367_at) / RFU PRRT2 (11749266_a_at) / Fold change /veh PRRT2 (11749266_a_at) / RFU SNX32 (11753110_a_at) / Fold change /veh SNX32 (11753110_a_at) / RFU CDHR5 (11726645_a_at) / Fold change /veh CDHR5 (11726645_a_at) / RFU RCAN1 (11760418_a_at) / Fold change /veh RCAN1 (11760418_a_at) / RFU FAM167A (11723789_a_at) / Fold change /veh FAM167A (11723789_a_at) / RFU FAM26E (11764081_at) / Fold change /veh FAM26E (11764081_at) / RFU ISYNA1 (11749810_s_at) / Fold change /veh ISYNA1 (11749810_s_at) / RFU ACY1 (11761880_at) / Fold change /veh ACY1 (11761880_at) / RFU 11764098_at / Fold change /veh 11764098_at / RFU SAMD14 (11745864_x_at) / Fold change /veh SAMD14 (11745864_x_at) / RFU NPB (11741838_a_at) / Fold change /veh NPB (11741838_a_at) / RFU TMPRSS6 (11731388_a_at) / Fold change /veh TMPRSS6 (11731388_a_at) / RFU KRTAP10-2 (11738614_at) / Fold change /veh KRTAP10-2 (11738614_at) / RFU ARHGAP8 /// PRR5-ARHGAP8 (11727945_x_at) / Fold change /veh ARHGAP8 /// PRR5-ARHGAP8 (11727945_x_at) / RFU KRTAP5-7 /// NADSYN1 (11734609_at) / Fold change /veh KRTAP5-7 /// NADSYN1 (11734609_at) / RFU RASL12 (11751679_a_at) / Fold change /veh RASL12 (11751679_a_at) / RFU CDKN2B (11736163_a_at) / Fold change /veh CDKN2B (11736163_a_at) / RFU PRF1 (11729649_at) / Fold change /veh PRF1 (11729649_at) / RFU, ZNF638 /// ZNF638-IT1 / Fold change vs veh, ZNF638 /// ZNF638-IT1 / RFU, PANK3 / Fold change vs veh, PANK3 / RFU, SH3YL1 / Fold change vs veh, SH3YL1 / RFU, ZEB2 / Fold change vs veh, ZEB2 / RFU, NRIP1 / Fold change vs veh, NRIP1 / RFU, PTTG1IP / Fold change vs veh, PTTG1IP / RFU, CAPN2 / Fold change vs veh, CAPN2 / RFU, MED14 / Fold change vs veh, MED14 / RFU, SNORA58 / Fold change vs veh, SNORA58 / RFU, C1orf63 / Fold change vs veh, C1orf63 / RFU, LRRFIP1 / Fold change vs veh, LRRFIP1 / RFU, NDUFAF7 / Fold change vs veh, NDUFAF7 / RFU, SLC12A2 / Fold change vs veh, SLC12A2 / RFU, IBTK / Fold change vs veh, IBTK / RFU, ESF1 / Fold change vs veh, ESF1 / Fold change vs veh, TMEM50B / RFU, TAOK1 / Fold change vs veh, TAOK1 / RFU, ACBD3 / Fold change vs veh, ACBD3 / RFU, TMA16 / Fold change vs veh, TMA16 / RFU, RWDD3 / Fold change vs veh, RWDD3 / RFU, BCAT1 / Fold change vs veh, BCAT1 / RFU, EDEM3 / Fold change vs veh, EDEM3 / RFU, TMEM33 / Fold change vs veh, TMEM33 / RFU, WDR75 / Fold change vs veh, WDR75 / RFU, AHCTF1 / Fold change vs veh, AHCTF1 / RFU, TFRC / Fold change vs veh, TFRC / RFU, ZDHHC17 / Fold change vs veh, ZDHHC17 / RFU, NOM1 / Fold change vs veh, NOM1 / RFU, ARL8B / Fold change vs veh, ARL8B / RFU, ZBTB11 / Fold change vs veh, ZBTB11 / RFU, TAMM41 / Fold change vs veh, TAMM41 / RFU, KIAA1704 /// LOC100996395 / Fold change vs veh, KIAA1704 /// LOC100996395 / RFU, ING1 / Fold change vs veh, ING1 / RFU, TRMT61B / Fold change vs veh, TRMT61B / RFU, FUBP3 / Fold change vs veh, FUBP3 / RFU, TP53 / Fold change vs veh, TP53 / RFU, TNKS2 / Fold change vs veh, TNKS2 / RFU, ZFP14 / Fold change vs veh, ZFP14 / RFU, ACTR2 / Fold change vs veh, ACTR2 / RFU, PPP3R1 / Fold change vs veh, PPP3R1 / RFU, PIK3R1 / Fold change vs veh, PIK3R1 / RFU, HNRNPA1 / Fold change vs veh, HNRNPA1 / RFU, RNF170 / Fold change vs veh, RNF170 / RFU, ZNF28 / Fold change vs veh, ZNF28 / RFU, RNGTT / Fold change vs veh, RNGTT / RFU, OGT / Fold change vs veh, OGT / RFU, BRD1 / Fold change vs veh, BRD1 / RFU, MARS / Fold change vs veh, MARS / RFU, ZNF655 / Fold change vs veh, ZNF655 / RFU, FAHD1 / Fold change vs veh, FAHD1 / RFU, BDP1 / Fold change vs veh, BDP1 / RFU, LRRCC1 / Fold change vs veh, LRRCC1 / RFU, ARID1A / Fold change vs veh, ARID1A / RFU, ZNF146 / Fold change vs veh, ZNF146 / RFU, ZNF330 / Fold change vs veh, ZNF330 / RFU, GPN3 / Fold change vs veh, GPN3 / RFU, C9orf123 / Fold change vs veh, C9orf123 / RFU, N4BP2L2 / Fold change vs veh, N4BP2L2 / RFU, ARFIP1 / Fold change vs veh, ARFIP1 / RFU, FAM179B / Fold change vs veh, FAM179B / RFU, BCL10 / Fold change vs veh, BCL10 / RFU, UHRF1BP1L / Fold change vs veh, UHRF1BP1L / RFU, BET1 / Fold change vs veh, BET1 / RFU, CNOT2 / Fold change vs veh, CNOT2 / RFU, ZNF268 / Fold change vs veh, ZNF268 / Fold change vs veh, ZNF507 / RFU, DGCR2 / Fold change vs veh, DGCR2 / RFU, WDSUB1 / Fold change vs veh, WDSUB1 / Fold change vs veh, HSP90B1 /// MIR3652 / RFU, ADSS / Fold change vs veh, ADSS / RFU, GK / Fold change vs veh, GK / RFU, ZNF148 / Fold change vs veh, ZNF148 / RFU, TAF9 / Fold change vs veh, TAF9 / RFU, SLC1A5 / Fold change vs veh, SLC1A5 / RFU, SLMO2 / Fold change vs veh, SLMO2 / RFU, ABCC4 / Fold change vs veh, ABCC4 / RFU, LOC101060439 /// RAP1B / Fold change vs veh, LOC101060439 /// RAP1B / RFU, RFX7 / Fold change vs veh, RFX7 / RFU, GTPBP10 / Fold change vs veh, GTPBP10 / RFU, CNEP1R1 / Fold change vs veh, CNEP1R1 / RFU, BIVM-ERCC5 /// ERCC5 / Fold change vs veh, BIVM-ERCC5 /// ERCC5 / RFU, ILF3 / Fold change vs veh, ILF3 / RFU 11762660_at / Fold change /veh 11762660_at / RFU VCAN (11757783_s_at) / Fold change /veh VCAN (11757783_s_at) / RFU DDX43 (11728927_at) / Fold change /veh DDX43 (11728927_at) / RFU KRT8 (11758188_x_at) / Fold change /veh KRT8 (11758188_x_at) / RFU NKD1 (11759106_at) / Fold change /veh NKD1 (11759106_at) / RFU SRD5A1 (11742802_a_at) / Fold change /veh SRD5A1 (11742802_a_at) / RFU TPSAB1 /// TPSB2 (11721975_s_at) / Fold change /veh TPSAB1 /// TPSB2 (11721975_s_at) / RFU GSTM3 (11746129_a_at) / Fold change /veh GSTM3 (11746129_a_at) / RFU IL23R (11737362_x_at) / Fold change /veh IL23R (11737362_x_at) / RFU TMEM51 (11727254_a_at) / Fold change /veh TMEM51 (11727254_a_at) / RFU PIWIL2 (11732686_x_at) / Fold change /veh PIWIL2 (11732686_x_at) / RFU ORM1 (11744905_x_at) / Fold change /veh ORM1 (11744905_x_at) / RFU CCDC152 (11743942_at) / Fold change /veh CCDC152 (11743942_at) / RFU ECM1 (11717891_a_at) / Fold change /veh ECM1 (11717891_a_at) / RFU IL23R (11748794_a_at) / Fold change /veh IL23R (11748794_a_at) / RFU TNFAIP8L3 (11732012_x_at) / Fold change /veh TNFAIP8L3 (11732012_x_at) / RFU MBOAT4 (11741988_at) / Fold change /veh MBOAT4 (11741988_at) / RFU 11764193_at / Fold change /veh 11764193_at / RFU TMEM53 (11763286_at) / Fold change /veh TMEM53 (11763286_at) / RFU MAGEB2 (11727129_at) / Fold change /veh MAGEB2 (11727129_at) / RFU TMEM200A (11744735_a_at) / Fold change /veh TMEM200A (11744735_a_at) / RFU CCDC152 (11751479_a_at) / Fold change /veh CCDC152 (11751479_a_at) / RFU FAM211A (11726209_a_at) / Fold change /veh FAM211A (11726209_a_at) / RFU RGS16 (11746705_a_at) / Fold change /veh RGS16 (11746705_a_at) / RFU VCAN (11755009_s_at) / Fold change /veh VCAN (11755009_s_at) / RFU RHOB (11743442_s_at) / Fold change /veh RHOB (11743442_s_at) / RFU RGS16 (11720943_a_at) / Fold change /veh RGS16 (11720943_a_at) / RFU RGS16 (11720944_at) / Fold change /veh RGS16 (11720944_at) / RFU, VPS4B / Fold change vs veh, VPS4B / RFU, CREB1 / Fold change vs veh, CREB1 / RFU, DNAJC13 / Fold change vs veh, DNAJC13 / RFU, GNAQ / Fold change vs veh, GNAQ / RFU, CDK5R1 / Fold change vs veh, CDK5R1 / RFU, ZRANB3 / Fold change vs veh, ZRANB3 / RFU, CUL4A / Fold change vs veh, CUL4A / RFU, CCNY / Fold change vs veh, CCNY / RFU, UFL1 / Fold change vs veh, UFL1 / RFU, COG3 / Fold change vs veh, COG3 / RFU, DIAPH2 / Fold change vs veh, DIAPH2 / RFU, SKA2 / Fold change vs veh, SKA2 / RFU, AFF3 / Fold change vs veh, AFF3 / RFU, LMF1 / Fold change vs veh, LMF1 / RFU, IPO11 / Fold change vs veh, IPO11 / RFU, DFFB / Fold change vs veh, DFFB / RFU, FOXP1 / Fold change vs veh, FOXP1 / RFU, CARD8 / Fold change vs veh, CARD8 / RFU, STRN3 / Fold change vs veh, STRN3 / RFU, ADK / Fold change vs veh, ADK / RFU, RASSF2 / Fold change vs veh, RASSF2 / RFU, WIPF1 / Fold change vs veh, WIPF1 / RFU, LARP1B / Fold change vs veh, LARP1B / RFU, RASA1 / Fold change vs veh, RASA1 / RFU, RB1 / Fold change vs veh, RB1 / RFU, PPFIA1 / Fold change vs veh, PPFIA1 / RFU, MAT2A / Fold change vs veh, MAT2A / RFU, CCT5 / Fold change vs veh, CCT5 / RFU, WDR92 / Fold change vs veh, WDR92 / RFU, CUX1 / Fold change vs veh, CUX1 / RFU, TTC7A / Fold change vs veh, TTC7A / RFU, TMEM135 / Fold change vs veh, TMEM135 / RFU, DEPTOR / Fold change vs veh, DEPTOR / RFU, CPM / Fold change vs veh, CPM / RFU, DNAJB6 / Fold change vs veh, DNAJB6 / RFU, CACNA2D3 / Fold change vs veh, CACNA2D3 / RFU, DTX4 / Fold change vs veh, DTX4 / RFU, TFCP2 / Fold change vs veh, TFCP2 / RFU, GMCL1 /// GMCL1P1 / Fold change vs veh, GMCL1 /// GMCL1P1 / RFU, AEBP2 / Fold change vs veh, AEBP2 / RFU, SNHG1 /// SNORD22 /// SNORD25 /// SNORD26 /// SNORD27 /// SNORD28 /// SNORD29 /// SNORD31 / Fold change vs veh, SNHG1 /// SNORD22 /// SNORD25 /// SNORD26 /// SNORD27 /// SNORD28 /// SNORD29 /// SNORD31 / Fold change (Aza/veh), C12orf56 (ProbeSet 11735607_a_at) / Fold change (ACY-1035/veh), C12orf56 (ProbeSet 11735607_a_at) / Fold change (Aza/veh), FGFR1OP (ProbeSet 11751329_s_at) / Fold change (ACY-1035/veh), FGFR1OP (ProbeSet 11751329_s_at) / Fold change (Aza/veh), VPS36 (ProbeSet 11739960_a_at) / Fold change (ACY-1035/veh), VPS36 (ProbeSet 11739960_a_at) / RFU SYPL1 (11715823_x_at) / Fold change /veh SYPL1 (11715823_x_at) / RFU IGFBP7 (11715501_s_at) / Fold change /veh IGFBP7 (11715501_s_at) / RFU REEP3 (11722064_at) / Fold change /veh REEP3 (11722064_at) / RFU IGLL1 (11728026_x_at) / Fold change /veh IGLL1 (11728026_x_at): dose or concentration left out as unconfirmed
Details: MV-4-11 cells, 48 hours

`Nc1ncn([C@@H]2O[C@H](CO)[C@@H](O)[C@H]2O)c(=O)n1` [azacitidine] was tested, and the “RFU LOC100653217 /// NTM (11731650_a_at)” value was 11.58 RFU.
